Read-outs that look alike come from different tables or passages of the source. Non-standard residues stand in square brackets, D forms with d. Residues, ends and D or L forms follow the SMILES beside them. pS = N[C@@H](COP(=O)(O)O)C(=O)O
Key:
14-3-3σ/MDM2 complex = assay: native mass spectrometry, ternary complex with FC-A; type: binding; settings: for relative abundance of ternary complex 14-3-3σ + MDM2 + FC-A (native MS): pH 6.8, SD, n = 3
Experimental: (§1) . Red arrows highlight peaks for the ternary complex.
14-3-3 σ was buffer exchanged into 100 mM ammonium acetate pH 6.8 using a 30 kDa molecular weight cut-off Amicon Ultra centrifugal filter (Merck Millipore) and stored at −80 °C prior to use. […] . All native MS experiments were performed on an Orbitrap Eclipse Tribrid mass spectrometer (Thermo Fisher Scientific, Bremen) coupled to a nanoelectrospray source that used gold-coated borosilicate glass capillaries, pulled in-house. Positive ionization mode was used throughout with the capillary voltage set to 1.2 kV. The source temperature was set at 275 °C, in-source dissociation at 25, S-lens RF at 100. High pressure mode was used and a mass range of 2000 to 8000 m/z used to monitor the binding equilibria. Mass spectra were acquired using a maximum ion injection time of 50 ms. The automatic gain control was set to 1 x 10^6 and the ions detected in the Orbitrap with resolution set to 7500. All data was analyzed using XCalibur (v.4.1). All proteins and protein complexes were identified based on their theoretical mass.
Analytical grade ammonium acetate and LC-MS grade Dimethyl Sulfoxide (DMSO) were purchased from Fisher Scientific. 14-3-3 σ was buffer exchanged into 100 mM ammonium acetate pH 6.8 using a 30 kDa molecular weight cut-off Amicon Ultra centrifugal filter (Merck Millipore) and stored at -80 °C prior to use. The lyophilised MDM2161-191^pS166/pS186 31mer peptide (see Table S4) was diluted into 100mM ammonium acetate pH 6.8. […] . To quantify each complex, the relative abundance of the complexes observed was assumed to reflect their abundance in solution. Due to overlapping peaks, 15+ ions were excluded from analysis. […] . Standard deviations of the abundance of each complex were calculated from 3 replicates.

14-3-3 PPIs = settings: cited from earlier work
Text: To investigate the feasibility of this, the effect of fusicoccin A (FC-A) on the PPI was studied using FP, ITC, and native MS.

[1] = system: 14-3-3σ/MDM2_159-173^pS166 peptide; assay: FP, FC-A effect on 14-3-3σ/MDM2 159-173 pS166; type: binding; settings: 1.0 mM FC-A, 10 nM FITC-labeled MDM2_159-173^pS166; accurate fit not obtained
Text: as §1

14-3-3σ = molecular target: T1, 14-3-3σ (Homo sapiens, UniProt P31947); assay: fluorescence polarization (FP), direct binding to 14-3-3σ; settings: for binding to 14-3-3σ by FP (in words) / maximum polarization level (in words): FITC-labeled peptide 10 nM; for binding to 14-3-3σ by FP (in words): pH 7.5; for maximum polarization level (in words): 14-3-3σ titration
T1 sequence (P31947 1-248): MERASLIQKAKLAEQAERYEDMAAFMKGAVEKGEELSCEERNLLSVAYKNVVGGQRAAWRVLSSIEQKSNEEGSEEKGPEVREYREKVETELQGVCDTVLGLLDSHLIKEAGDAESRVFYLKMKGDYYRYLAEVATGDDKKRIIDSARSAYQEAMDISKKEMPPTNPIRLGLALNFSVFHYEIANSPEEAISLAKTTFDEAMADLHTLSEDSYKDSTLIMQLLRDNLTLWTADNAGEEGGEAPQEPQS
Experimental: (§2) For all experiments, a fixed concentration of 10 nM fluorescently labeled peptide (FITC) was used. […] All data was analyzed using GraphPad Prism 7 and sigmoidal curves were fitted using the following equation: Y=Bottom + (Top-Bottom)/(1+10ˆ((Log app.Kd-X)∗HillSlope)), where Y = mP value; X = log 14-3-3 concentration; top and bottom = plateaus in mP.
(§3) Both proteins were prepared via the following procedure:
(§4) For all experiments a fixed concentration of 10 nM fluorescently labelled peptide (FITC) was used. […] All data was analysed using GraphPad Prism 7 and sigmoidal curves were fitted using the following equation:

[2] = molecular target: 14-3-3σ/MDM2_179-193^pS186 peptide (Homo sapiens, UniProt P31947+Q00987); assay: biochemical
Experimental: as §2

14-3-3ζ = molecular target: T2, 14-3-3ζ (Homo sapiens, UniProt P63104); assay: fluorescence polarization (FP), direct binding to 14-3-3ζ
T2 sequence (P63104 1-245): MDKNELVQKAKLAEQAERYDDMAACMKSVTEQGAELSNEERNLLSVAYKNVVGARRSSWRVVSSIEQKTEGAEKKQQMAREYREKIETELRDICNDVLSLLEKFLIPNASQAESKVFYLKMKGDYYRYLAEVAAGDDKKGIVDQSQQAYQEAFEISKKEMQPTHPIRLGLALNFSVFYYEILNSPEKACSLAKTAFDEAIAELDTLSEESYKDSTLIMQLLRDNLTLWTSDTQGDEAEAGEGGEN
Experimental: as §2, §3, §4

14-3-3σ and 14-3-3ζ = assay: ITC, mono-phosphorylated MDM2 peptides; type: binding; settings: N-acetylated peptide 1.0 mM into 14-3-3 100 µM, 25 °C, pH 7.5, Malvern MicroCal ITC200

In the case of `C=CC(C)(C)OC[C@H]1O[C@H](O[C@@H]2C3=C([C@H](C)COC(C)=O)C[C@H](O)[C@]3(C)/C=C3/[C@@H](COC)CC[C@H]3[C@@H](C)[C@H]2O)[C@H](O)[C@@H](OC(C)=O)[C@@H]1O` [FC-A, fusicoccin A], the “relative abundance of ternary complex 14-3-3σ + MDM2 + FC-A (native MS)” value (14-3-3σ/MDM2 complex; 14-3-3σ 5 μM : MDM2 10 μM : FC-A 5 μM) is reported as 6 ± 3%, the “relative abundance of ternary complex 14-3-3σ + MDM2 + FC-A (native MS)” value (14-3-3σ/MDM2 complex; 14-3-3σ 5 μM : MDM2 10 μM : FC-A 25 μM) is reported as 15 ± 5% and the “composition of ternary complex (native MS, in words)” value (14-3-3σ/MDM2 complex; 14-3-3σ 5 μM, MDM2 peptide 10 μM, FC-A 5 or 25 μM) is reported as “a 14-3-3 dimer, a single MDM2 di-phosphorylated peptide, and a single FC-A molecule”. For the same compound, the “stabilization of di-phosphorylated mode I/II motif peptides, e.g. CFTR (in words)” value (14-3-3 PPIs; ref [27]) was “shown to stabilize peptides containing mode I/II type di-phosphorylated binding motifs”, the “stabilization of mode III 14-3-3 PPIs (in words)” value (14-3-3 PPIs; ref [43]) was “predominantly stabilizes mode III 14-3-3 PPIs” and the “effect of FC-A on binding (FP, in words)” value [1] was “small effect”.
Work on `CC[C@H](C)[C@H](NC(=O)[C@H](CO)NC(=O)[C@H](CC(=O)O)NC(=O)[C@H](COP(=O)(O)O)NC(=O)[C@H](CCCCN)NC(=O)[C@H](Cc1c[nH]cn1)NC(=O)[C@H](CCCNC(=N)N)NC(=O)[C@H](CCCCN)NC(=O)[C@H](CCCNC(=N)N)NC(=O)[C@H](CCC(N)=O)NC(=O)[C@H](CCCNC(=N)N)NC(C)=O)C(=O)N[C@@H](CO)C(=O)N[C@@H](CC(C)C)C(=O)N[C@@H](CO)C(=O)N[C@@H](Cc1ccccc1)C(N)=O` [MDM2_179-193^pS186] (Ac-RQRKRHK[pS]DSISLSF-NH2) yielded a Kd (14-3-3σ) of 26.2 ± 17.9 µM, a Kd (14-3-3σ; Kd (FP), duplicate data, duplicate data set (Fig. S1A), 14-3-3σ titrated to 10 nM FITC-labelled peptide, pH 7.5, room temperature, SD, n=3) of 22.3 ± 21.5 µM and a Kd [2] of 24.6 ± 12 µM. It also gave a Kd (14-3-3ζ) of 11.4 ± 5.4 µM.
With “AcHN-^159SSRRRAI(pS)ETEENSD^173-NH2 (Ac-SSRRRAI[pS]ETEENSD-NH2; SMILES CC[C@H](C)[C@H](NC(=O)[C@H](C)NC(=O)[C@H](CCCNC(=N)N)NC(=O)[C@H](CCCNC(=N)N)NC(=O)[C@H](CCCNC(=N)N)NC(=O)[C@H](CO)NC(=O)[C@H](CO)NC(C)=O)C(=O)N[C@@H](COP(=O)(O)O)C(=O)N[C@@H](CCC(=O)O)C(=O)N[C@H](C(=O)N[C@@H](CCC(=O)O)C(=O)N[C@@H](CCC(=O)O)C(=O)N[C@@H](CC(N)=O)C(=O)N[C@@H](CO)C(=O)N[C@@H](CC(=O)O)C(N)=O)[C@@H](C)O; UniProt Q00987 159-173, looked up, fragment) [MDM2_159-173^pS166]” the “binding to 14-3-3σ by FP (in words)” value (14-3-3σ) was “bound weakly to 14-3-3σ and saturation was not observed”, the “binding by ITC (in words)” value (14-3-3σ and 14-3-3ζ) was “could not be detected” and the “binding to 14-3-3ζ by FP (in words)” value (14-3-3ζ; FITC-labeled peptide 10 nM, pH 7.5) was “bound weakly to 14-3-3ζ, and no effective Kd value could be obtained”.
For “FITC-Ahx-^159SSRRRAI(pS)ETEENSDELSGERQRKRHKSDSISLSF^193-NH2 (SSRRRAISETEENSDELSGERQRKRHKSDSISLSF; phosphoSer166; FITC label; UniProt Q00987 159-193, looked up, fragment) [MDM2_159-193^pS166]”, the “maximum polarization level (in words)” value (14-3-3σ) was “small increase in the maximum polarization value” and the “binding to 14-3-3σ by FP (in words)” value (14-3-3σ) was “saturation was not observed and an effective Kd value could not be obtained”.
With “FITC-Ahx-^159SSRRRAISETEENSDELSGERQRKRHK(pS)DSISLSF^193-NH2 (SSRRRAISETEENSDELSGERQRKRHKSDSISLSF; phosphoSer186; FITC label; UniProt Q00987 159-193, looked up, fragment) [MDM2_159-193^pS186]” the “maximum polarization level (in words)” value (14-3-3σ) was “comparable to that observed for the di-phosphorylated MDM2_161-191^pS166/pS186 peptide” and the “binding to 14-3-3σ by FP (in words)” value (14-3-3σ) was “much weaker affinity than the 15 amino acid MDM2_179-193^pS186 peptide”.
